From US11779577B2, “Nonselective metabotropic glutamate receptor activators for treatment of anorexia nervosa and binge eating disorder” (The Children's Hospital of Philadelphia, priority 2016, dated 2023)

Experiments:
pediatric ADHD subjects = settings: compared to a placebo control; cited from earlier work
ADHD = test: open-label Phase Ib clinical trial in adolescent ADHD subjects with CNV in an mGluR network gene; assay type: in vivo, human
Experimental: Previously, an open-label Phase Ib clinical trial was conducted to study the safety, pharmacokinetics, and efficacy of fasoracetam (fasoracetam monohydrate) in adolescent subjects between the ages of 12 and 17 previously diagnosed with ADHD. Each of the study subjects in this clinical trial had one or more CNV in an mGluR network gene.

[1] = prior human studies; cited from earlier work
[2] = tested on: group I and group II/III mGluRs; settings: in vitro studies (Hirouchi 2000); cited from earlier work
[3] = tested on: adenylate cyclase activity; settings: cited from earlier work
[4] = tested on: dementia-related cognitive impairment; settings: cited from earlier work

In the case of `NC(=O)CN1CCCC1=O` [piracetam], the ADHD symptoms (pediatric ADHD subjects) is given as “increase ADHD symptoms”.
In the case of `O=C1CC[C@H](C(=O)N2CCCCC2)N1` [fasoracetam], the “treatment of ADHD” value (ADHD; adolescent subjects ages 12 to 17 with one or more CNV in an mGluR network gene) is listed as “successfully treated”, the appetite (ADHD; children tested in the ADHD clinical study) is listed as “appetite was observed to be improved” and the bioavailability [1] is listed as 79%-97%. For the same compound, the half-life [1] was 5 to 6.5 h, the “stimulation of mGluRs” value [2] was “stimulate both group I and group II/III mGluRs” and the “adenylate cyclase activity through group II and III mGluRs” value ([3]; by stimulating group II and III mGluRs (Oka 1997)) was “may also inhibit adenylate cyclase activity”. For the same compound, the “adenylate cyclase activity through group I mGluRs” value ([3]; through activation of group I mGluRs (Oka 1997)) was “may stimulate adenylate cyclase activity”, the safety and tolerability ([4]; Phase I-III trials, dementia-related cognitive impairment) was “generally safe and well tolerated” and the “effects on psychiatric symptoms” value ([4]; Phase III data, cerebral infarct patients and adult dementia patients with cerebrovascular diseases) was “beneficial effects”. For the same compound, the efficacy in dementia ([4]; Phase III trials) was “did not show sufficient efficacy”.
